Source: patent US6043217A, “Amide derivative of amythiamicin” (Zaidan Hojin Biseibutsu Kagaku Kenyu Kai, priority 1996, dated 2000)

Key:
Format in all cases: cell-based
[1] = tested on: Bacillus subtilis NRRL B-558; assay: MIC, standard serial dilution method; conditions: Muller-Hinton agar medium, 37° C.
[2] = tested on: Staphylococcus aureus TY-0428; assay: MIC, standard serial dilution method; conditions: Muller-Hinton agar medium, 37° C.
[3] = tested on: Shigella dysenteria JS 11910; assay: MIC, standard serial dilution method; conditions: Muller-Hinton agar medium, 37° C.
[4] = tested on: Escherichia coli BE 1186; assay: MIC, standard serial dilution method; conditions: Muller-Hinton agar medium, 37° C.
[5] = tested on: Escherichia coli K-12 ML 1692; assay: MIC, standard serial dilution method; conditions: Muller-Hinton agar medium, 37° C.
Procedure: (§1) The antibacterial activities of the amythiamicin amide derivative of the general formula (I) according to this invention are now concretely described. Compounds No. 1 to No. 11 according to this invention, which were respectively prepared in Examples 1 to 11 hereinafter given, were tested as the test compounds for their minimum inhibitory concentrations (MIC.) (μg/ml) against growth of a variety of test microorganisms by a standard serial dilution method. In the tests, the incubation medium used was Muller-Hinton agar medium and the incubation temperature was 37° C. The test results are shown as antibacterial spectra in the following Tables 2 and 3.

[6] = tested on: Shigella clexnerl JS 11749; assay: MIC, standard serial dilution method; conditions: Muller-Hinton agar medium, 37° C.
Procedure: as §1

[7] = tested on: Shigella sonnei JS 11746; assay: MIC, standard serial dilution method; conditions: Muller-Hinton agar medium, 37° C.
Procedure: as §1

[8] = tested on: Escherichia coli BEM 11; assay: MIC, standard serial dilution method; conditions: Muller-Hinton agar medium, 37° C.
[9] = tested on: Klebsiella pneumonia PCI 602; assay: MIC, standard serial dilution method; conditions: Klebsiella pneumonia PCI 602 (Table 2); Muller-Hinton agar medium, 37° C.
[10] = tested on: Candida albicans 3147; assay: MIC, standard serial dilution method; conditions: Muller-Hinton agar medium, 37° C.
[11] = tested on: Serratia marcescens; assay: MIC, standard serial dilution method; conditions: Muller-Hinton agar medium, 37° C.
[12] = tested on: Staphylococcus aureus Smith; assay: MIC, standard serial dilution method; conditions: Muller-Hinton agar medium, 37° C.
[13] = tested on: Pseudomonas aeruginosa GN315; assay: MIC, standard serial dilution method; conditions: Muller-Hinton agar medium, 37° C.
[14] = tested on: Proteus vulgaris OX 19; assay: MIC, standard serial dilution method; conditions: Muller-Hinton agar medium, 37° C.
[15] = tested on: Proteus mirabilis IFM OM-9; assay: MIC, standard serial dilution method; conditions: Muller-Hinton agar medium, 37° C.
[16] = tested on: Staphylococcus aureus No. 17 (MRSA); assay: MIC, standard serial dilution method; conditions: Muller-Hinton agar medium, 37° C.
[17] = tested on: Providencia rettgeri GN 466; assay: MIC, standard serial dilution method; conditions: Muller-Hinton agar medium, 37° C.
[18] = tested on: Staphylococcus aureus No. 5 (MRSA); assay: MIC, standard serial dilution method; conditions: Muller-Hinton agar medium, 37° C.
[19] = tested on: Micrococcus luteus PIC 1001; assay: MIC, standard serial dilution method; conditions: Muller-Hinton agar medium, 37° C.
[20] = tested on: Bacillus subtilis PCI 219; assay: MIC, standard serial dilution method; conditions: Muller-Hinton agar medium, 37° C.
[21] = tested on: Pseudomonas aeruginosa A3; assay: MIC, standard serial dilution method; conditions: Muller-Hinton agar medium, 37° C.
[22] = tested on: Bacillus cereus ATCC 10702; assay: MIC, standard serial dilution method; conditions: Muller-Hinton agar medium, 37° C.
[23] = tested on: Providencia rettgeri GN 311; assay: MIC, standard serial dilution method; conditions: Muller-Hinton agar medium, 37° C.
[24] = tested on: Micrococcus luteus FDA 16; assay: MIC, standard serial dilution method; conditions: Muller-Hinton agar medium, 37° C.
[25] = tested on: Escherichia coli BEM 1121; assay: MIC, standard serial dilution method; conditions: Muller-Hinton agar medium, 37° C.
[26] = tested on: Micrococcus luteus IFO 3333; assay: MIC, standard serial dilution method; conditions: Muller-Hinton agar medium, 37° C.
[27] = tested on: Salmonella enteritidis 1891; assay: MIC, standard serial dilution method; conditions: Muller-Hinton agar medium, 37° C.
[28] = tested on: Salmonella typhi T-63; assay: MIC, standard serial dilution method; conditions: Muller-Hinton agar medium, 37° C.
[29] = tested on: Staphylococcus aureus MS 16526; assay: MIC, standard serial dilution method; conditions: Muller-Hinton agar medium, 37° C.
[30] = tested on: Bacillus anthracis; conditions: Muller-Hinton agar medium, 37° C.
[31] = tested on: Staphylococcus aureus FDA 209P; assay: MIC, standard serial dilution method; conditions: Muller-Hinton agar medium, 37° C.
[32] = tested on: Escherichia coli K-12; assay: MIC, standard serial dilution method; conditions: Muller-Hinton agar medium, 37° C.
[33] = tested on: Escherichia coli NIHJ; assay: MIC, standard serial dilution method; conditions: Muller-Hinton agar medium, 37° C.
[34] = tested on: Corynebacterium bovis 1810; assay: MIC, standard serial dilution method; conditions: Muller-Hinton agar medium, 37° C.
[35] = tested on: Staphylococcus aureus MS 9610; assay: MIC, standard serial dilution method; conditions: Muller-Hinton agar medium, 37° C.
[36] = tested on: Mycobacterium smegmatis ATCC 607; assay: MIC, standard serial dilution method; conditions: Muller-Hinton agar medium, 37° C.

Compound	Minimum growth inhibitory concentrations (MIC.) [1] [µg/mL]	Minimum growth inhibitory concentrations (MIC.) [2] [µg/mL]	Minimum growth inhibitory concentrations (MIC.) [3] [µg/mL]	Minimum growth inhibitory concentrations (MIC.) [4] [µg/mL]	Minimum growth inhibitory concentrations (MIC.) [5] [µg/mL]	Minimum growth inhibitory concentrations (MIC.) [6] [µg/mL]	Minimum growth inhibitory concentrations (MIC.) [7] [µg/mL]	Minimum growth inhibitory concentrations (MIC.) [8] [µg/mL]	Minimum growth inhibitory concentrations (MIC.) [9] [µg/mL]	Minimum growth inhibitory concentrations (MIC.) [10] [µg/mL]	Minimum growth inhibitory concentrations (MIC.) [11] [µg/mL]	Minimum growth inhibitory concentrations (MIC.) [12] [µg/mL]	Minimum growth inhibitory concentrations (MIC.) [13] [µg/mL]	Minimum growth inhibitory concentrations (MIC.) [14] [µg/mL]	Minimum growth inhibitory concentrations (MIC.) [15] [µg/mL]	Minimum growth inhibitory concentrations (MIC.) [16] [µg/mL]	Minimum growth inhibitory concentrations (MIC.) [17] [µg/mL]	Minimum growth inhibitory concentrations (MIC.) [18] [µg/mL]	Minimum growth inhibitory concentrations (MIC.) [19] [µg/mL]	Minimum growth inhibitory concentrations (MIC.) [20] [µg/mL]	other results
CNC(=O)CC1NC(=O)c2csc(n2)-c2ccc(-c3nc(C(=O)NCCCCCC(=O)O)cs3)nc2-c2csc(n2)-c2csc(n2)C(C(C)C)NC(=O)CNC(=O)c2csc(n2)C(C(C)C)NC(=O)c2nc1sc2C (centres unmarked) [Compound No. 2]	1.56	0.2	3.13	> 100	> 100	> 100	> 100	> 100	> 100	> 100	> 100	0.1	> 100	> 100	> 100	0.2	> 100	0.2	0.1	0.2	Minimum growth inhibitory concentrations (MIC.) [21]: > 50 µg/mL; Minimum growth inhibitory concentrations (MIC.) [22]: 0.1 µg/mL; Minimum growth inhibitory concentrations (MIC.) [23]: > 100 µg/mL; Minimum growth inhibitory concentrations (MIC.) [24]: 0.39 µg/mL; Minimum growth inhibitory concentrations (MIC.) [25]: > 100 µg/mL; Minimum growth inhibitory concentrations (MIC.) [26]: 0.39 µg/mL; Minimum growth inhibitory concentrations (MIC.) [27]: 6.25 µg/mL; Minimum growth inhibitory concentrations (MIC.) [28]: > 100 µg/mL; Minimum growth inhibitory concentrations (MIC.) [29]: 0.2 µg/mL; Minimum growth inhibitory concentrations (MIC.) [30]: < 0.03 µg/mL; Minimum growth inhibitory concentrations (MIC.) [31]: 0.1 µg/mL; Minimum growth inhibitory concentrations (MIC.) [32]: > 100 µg/mL; Minimum growth inhibitory concentrations (MIC.) [33]: > 100 µg/mL; Minimum growth inhibitory concentrations (MIC.) [34]: 0.31 µg/mL; Minimum growth inhibitory concentrations (MIC.) [35]: 0.2 µg/mL
CNC(=O)CC1NC(=O)c2csc(n2)-c2ccc(-c3nc(C(=O)NCCCN(C)CCCN)cs3)nc2-c2csc(n2)-c2csc(n2)C(C(C)C)NC(=O)CNC(=O)c2csc(n2)C(C(C)C)NC(=O)c2nc1sc2C (centres unmarked) [Compound No. 4]	> 100	> 100	> 100	> 100	> 100	> 100	> 100	> 100	> 100	> 100	> 100	12.5	> 100	> 100	> 100	> 100	> 100	> 100	3.12	> 100	Minimum growth inhibitory concentrations (MIC.) [36]: > 100 µg/mL; Minimum growth inhibitory concentrations (MIC.) [21]: > 100 µg/mL; Minimum growth inhibitory concentrations (MIC.) [22]: 6.25 µg/mL; Minimum growth inhibitory concentrations (MIC.) [23]: > 100 µg/mL; Minimum growth inhibitory concentrations (MIC.) [24]: > 100 µg/mL; Minimum growth inhibitory concentrations (MIC.) [25]: > 100 µg/mL; Minimum growth inhibitory concentrations (MIC.) [26]: > 100 µg/mL; Minimum growth inhibitory concentrations (MIC.) [27]: > 100 µg/mL; Minimum growth inhibitory concentrations (MIC.) [28]: > 100 µg/mL; Minimum growth inhibitory concentrations (MIC.) [29]: > 100 µg/mL; Minimum growth inhibitory concentrations (MIC.) [30]: 3.12 µg/mL; Minimum growth inhibitory concentrations (MIC.) [31]: 12.5 µg/mL; Minimum growth inhibitory concentrations (MIC.) [32]: > 100 µg/mL; Minimum growth inhibitory concentrations (MIC.) [33]: > 100 µg/mL; Minimum growth inhibitory concentrations (MIC.) [34]: > 100 µg/mL; Minimum growth inhibitory concentrations (MIC.) [35]: 50 µg/mL
